Consider 3 compounds from patent US6881732B2, “Neuroprotection and cardioprotection afforded by chelators with high affinity and specificity for cations of first transition series elements” (Chelator LLC, priority 2002, dated 2005).

Where only a bound is given, the exact number is not on record here.

For data set [1], the system named is Fenton Reactions (iron catalyzed Haber-Weiss pathways). Nature of the data set: iron-catalyzed free radical generation, superoxide-driven Fenton reaction. It counts as biochemical. The following applies: chelator as Fe(III) complex. Here is the method:
Employing published methods, as described in “Quantitative Effects of Iron Chelators on Hydroxyl Radical Production by the Superoxide-Driven Fenton Reaction,” J. B. Smith, J. C. Cusumano, C. F. Babbs, Free Rad. Res. Comms. 1990, Vol. 8, No. 2, 101-106, the ability of Fe(III) complexed to N,N′,N″-tri(dihydroxy-phosphoryl methyl)-1,4,7-triazacyclononane to support Fenton reactions was evaluated.

A short description of data set [2]: acute in vivo toxicity, single intravenous dose in mice. The following applies: mouse, in vivo, iv. As for the experimental part:
(§1) This example illustrates the low in vivo toxicity of a representative example of the chelators of this invention upon administration to mice.
(§2) This in vivo LD50 toxicity dose results in an instantaneous in vivo concentration which is orders of magnitude greater than the dose of this agent which inhibits mammalian cell replication in vitro (0.009 mM/L).

A further data set deals with mice. The description is as above. To be noted: 3.0 mM/kg single intravenous dose; sodium salt. Here is the method:
as §1, §2

A further data set concerns unanesthetized rabbit. Nature of the data set: ventricular overdrive pacing (VOP) induced ischemia in unanesthetized rabbit. The following applies: for cardioprotection with regard to cardiac performance parameters: 10 min prior to VOP. It counts as in vivo. As for the experimental part:
In the in vivo unanesthetized rabbit VOP-induced myocardial ischemia model, intravenous doses of 0.032 mmole/kg and 0.096 mmole/kg of the test compound were cardioprotective with regard to cardiac performance parameters when administered 10 min prior to VOP. […] The test compound had no affect on any cardiac performance parameters in these experiments prior to VOP-induced ischemia.

Another data set deals with anesthetized rabbit. In words: rabbit myocardial infarction model (30 min LCAO, reperfusion ~24 hours). Type of data set: in vivo. The following applies: for cardioprotection (volume of infarcted myocardium vs. controls): administered beginning after 15 minutes of LCAO. Here is the method: Cardioprotection by the test compound in ischemia-reperfusion injury was evaluated in a rabbit myocardial infarction model employing 30 minutes of reversible ligature occlusion of the left anterior descending coronary artery (LCAO) followed by reperfusion for ˜24 hours prior to sacrifice.

The subject of data set [3] is HFF (human foreskin fibroblasts). Nature of the data set: toxicity toward nonproliferating mammalian cells in vitro. Type of data set: cell-based. The following applies: 0.3 mM; mature, nonreplicating HFF cultures in maintenance media; five-day period of observation. An excerpt: This example illustrates the relatively low toxicity of a representative example of the chelators of this invention toward nonproliferating mammalian cells in vitro.

Data set [4] relates to ex vivo working rat heart. Nature of the data set: ex vivo working rat heart model of global ischemia.
Another data set has as its system Sprague Dawley rats. Nature of the data set: subacute toxicity, repeated intravenous doses in rats. It counts as in vivo, rat. An excerpt: Ten male Sprague Dawley rats 29 days old and weighing between 73.4 and 87.8 grams at the beginning of the experiment were randomized, employing the block stratificaton method, into two groups consisting of five rats each. On each of days 1, 2, 3, 6, 7, 8, 9, 10, 13 and 14 of the experiment one set of rats received an intravenous dose of N,N′,N″-tri(dihydroxyphosphoryl methyl)-1,4,7-triazacyclononane (Example 1C in U.S. Pat. No. 5,236,695) equal to 0.05 millimoles per kg of initial body weight (experimental group) while the other group received an equivalent volume of normal saline solution. The weights of the animals were recorded three times per week and the animals were sacrificed on the 28th day, major organs removed and weighed and tissues removed for microscopic examination.

The next data set deals with rats. In words: rat stroke model, transient occlusion of the middle cerebral artery (TMCAO). It counts as in vivo. To be noted: for Infarct Volumes: 48 hours after surgery; for Infarct Volumes / Motor Score: 1 Hour / Motor Score: 24 Hours / Motor Score: 48 Hours: mean ± SD.
Data set [5] deals with mammalian cell replication. In words: inhibition of mammalian cell replication in vitro. Type of data set: cell-based. As for the experimental part: as §2
[6] abbreviates: Set I: three IV doses of 0.032 mmoles/kg at 10 min prior to, 60 min after MCA occlusion and at reperfusion.
Where [7] appears, read: Set II: three IV doses of 0.032 mmoles/kg at 60, 120 (reperfusion) and 180 min after MCA occlusion.
[8] abbreviates: Set III: single 0.032 mmoles/kg IV dose after 60 minutes of MCA occlusion.
Setting [9] is: Set IV: single 0.032 mmoles/kg IV dose after 90 minutes of MCA occlusion.

The term LD50 denotes the dose at which mortality reaches 50%.

Regarding `O=C(O)CN(CCN(CC(=O)O)CC(=O)O)CC(=O)O` [EDTA, ethylene diamine tetra acetic acid, reference compound], the “ability of Fe(III) complexed to the chelator to support Fenton reactions (hydroxyl radical formation)” value in data set [1] is recorded as “supported the Fenton reaction yielding hydroxyl radicals”.

On to `O=P(O)(O)CN1CCN(CP(=O)(O)O)CCN(CP(=O)(O)O)CC1` [N,N′,N″-tris(dihydroxyphosphorylmethyl)-1,4,7-triazacyclononane], for which the LD50 at 14 days in [2] is > 3000 µmol/kg. The “mice surviving for over 14 days” value with mice is reported as “Over 50%”. Also, the “cardioprotection with regard to cardiac performance parameters” value with unanesthetized rabbit (0.032 mmole/kg intravenous) and in the data set on unanesthetized rabbit (0.096 mmole/kg intravenous) was “cardioprotective” each time. The cardioprotection result in the data set with unanesthetized rabbit (single IV dose of 0.032 mmole/kg administered up to 60-120 min prior to VOP-induced ischemia) is recorded as “significant cardioprotection”. Further, the “effect on cardiac performance parameters prior to VOP-induced ischemia” value in the data set on unanesthetized rabbit (unanesthetized rabbit) is “no affect”. Besides, in [1], the “ability of Fe(III) complexed to the chelator to support Fenton reactions (hydroxyl radical formation)” value is recorded as “failed to show evidence of hydroxyl ion formation above background”. In addition, the “cardioprotection (volume of infarcted myocardium vs. controls)” value in the data set with anesthetized rabbit was “significant reduction”. Further, in the data set with anesthetized rabbit (administration beginning after 15 minutes of LCAO), the “volume of infarcted myocardium expressed as % of myocardial volume at risk” value worked out at 30.6%. The “infarcted myocardium as a % of volume at risk” value in the data set on anesthetized rabbit (administration initiated 10 minutes prior to the onset of ischemia) came out at 28.1%. The “effect on pre-ischemia cardiac performance parameters” value in the data set on anesthetized rabbit (rabbit) is listed as “without affecting”. Further, in [3], the “effect on the resting cells” value was “no effect on the resting cells was observed”. Also, in data set [4] (2.7 mM in the perfusing medium), the “effects on cardiac parameters following ischemia” value is reported as “no adverse effects”. Also, the “effects on cardiac performance parameters prior to ischemia” value in data set [4] (2.7 mM in the perfusing medium) was “no effects”. In addition, the “cardioprotection with regard to cardiac performance parameters following global ischemia” value in data set [4] (added to the perfusing medium, broad concentration range) is recorded as “significantly cardioprotective”. For the same compound, the “concentration of peak efficacy (cardioprotection)” value in data set [4] (in the perfusing medium) worked out at 0.01 mM. The “difference in weight or rate of weight gain vs control group” value in the data set with Sprague Dawley rats (0.05 millimoles per kg IV on 10 days within 14 days, injection period and two-week post-injection period) was “no statistically significant difference”. Also, the “differences in tissues upon microscopic examination vs control group” value in the data set on Sprague Dawley rats (0.05 millimoles per kg IV on 10 days, necropsy on 28th day) is “no differences”. The “differences in weights of major organs vs control group” value in the data set with Sprague Dawley rats (0.05 millimoles per kg IV on 10 days, sacrifice on 28th day) is given as “no differences observed”. For the same compound, the “Infarct Volumes” value is on record as 3.5 ± 3.7 percentage of whole hemispheric tissue in the data set with rats (setting [6]), 6.2 ± 7.5 percentage of whole hemispheric tissue with rats (setting [7]), 2.6 ± 2.1 percentage of whole hemispheric tissue in the data set on rats (setting [8]) and 4.63 ± 9.08 percentage of whole hemispheric tissue with rats (setting [9]). The “Motor Score: 1 Hour” value in the data set with rats (setting [6]) was 7.3 ± 1.3 points; with rats (setting [7]), 6.9 ± 1.1 points; in the data set with rats (setting [8]) it was 6.8 ± 1.0 points; in the data set with rats (Set IV: single 0.032 mmoles/kg IV dose after 90 minutes of MCA occlusion, cell marked '2 hours:'), 7.43 ± 1.27 points. Also, the “Motor Score: 24 Hours” value with rats (setting [6]) came out at 5.9 ± 1.1 points; with rats (setting [7]) it was 3.6 ± 2.9 points; with rats (setting [8]), 4.3 ± 1.0 points; in the data set on rats (setting [9]) it was 4.9 ± 2.04 points. Also, the “Motor Score: 48 Hours” value is given as 5.4 ± 1.9 points in the data set on rats (setting [6]), 3.0 ± 3.0 points in the data set with rats (setting [7]), 2.8 ± 2.1 points with rats (setting [8]) and 3.7 ± 1.98 points with rats (setting [9]). For the same compound, in the data set with rats (all treated groups), the “blood pressure, heart rate and temperature values compared with vehicle-treated animals” value was “similar”. Besides, the “reduction in infarct volumes compared to the corresponding control group” value in the data set on rats (all treated rats) was “robust”. In [5], the “dose which inhibits mammalian cell replication in vitro” value amounted to 0.009 mM/L.

Regarding `O=C(NCCO[N+](=O)[O-])c1cccnc1` [nicorandil, reference compound], the “cardioprotection (volume of infarcted myocardium vs. controls)” value with anesthetized rabbit was “failed to provide cardioprotection”.
